Measured values: patent US10344019B2 (priority 2010, dated 2019)
Like-named read-outs stand apart in the source and are kept apart here.

Legend:
Assay in all cases: microbe, parasite or virus in culture
Assay type in all cases: cell-based
[1] = system: HCV 2a JFH-1 Rluc cells (dicistronic genotype 2a JFH-1 replicon, RLuc reporter); conditions: Hepatitis C virus, genotype 2a JFH-1 replicon, read-out: 2a JFH
Outline: (§1)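 Replicon cells stably carrying the listed RLuc-encoding dicistronic replicons were seeded and treated with DMSO serial dilutions of compound (10 mM stocks) diluted into culture medium. After 72 h, cells were lysed and Renilla luciferase activity measured. EC50 was derived by non-linear regression.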

[2] = system: HCV 1a RLuc cells (dicistronic genotype 1a H77 replicon, RLuc reporter); conditions: Hepatitis C virus, genotype 1a H77 replicon, read-out: 1a
Outline: as §1

[3] = system: HCV 1b RLuc cells (dicistronic genotype 1b Con1 replicon, RLuc reporter); conditions: Hepatitis C virus, read-out: 1b (nM)
Outline: as §1

[4] = system: HCV 4a Rluc cells (NS5A chimeric genotype 1b Con1 replicon with genotype 4a NS5A gene); conditions: Hepatitis C virus, read-out: 4a
Outline: as §1

[5] = system: HCV 3a RLuc cells (NS5A chimeric genotype 1b Con1 replicon with consensus genotype 3a NS5A gene); conditions: Hepatitis C virus
Outline: as §1

[6] = read-out: 3a, Table 2, genotype 3a NS5A chimeric replicon
[7] = read-out: 3a, genotype 3a NS5A chimeric 1b Con1 replicon

SMILES	EC50 ([1]; 72 h, Table 2, 72 hours)	EC50 ([2]; 72 h, Table 2, 72 hours)	EC50 ([3]; 72 h)	EC50 [4]	EC50 [5, 6]	EC50 ([1]; RLuc reporter)	EC50 ([2]; RLuc reporter)	EC50 [3]	EC50 [5, 7]
COC(=O)N[C@H](C(=O)N1CCC[C@H]1c1nc2ccc3cc(-c4ccc5cc(-c6cnc([C@@H]7[C@H]8CC[C@H](C8)N7C(=O)[C@H](NC(=O)OC)c7ccccc7)[nH]6)ccc5c4)ccc3c2[nH]1)C1CCOCC1 [Example 84]	0.001 to 0.999 nM	0.001 to 0.999 nM	0.007 nM	0.001 to 0.99 nM	0.001 to 0.99 nM	–	–	–	–
COC(=O)N[C@H](C(=O)N1[C@@H]2CC[C@@H](C2)[C@H]1c1ncc(-c2ccc3c(c2)CCc2cc(-c4cnc([C@@H]5CCCN5C(=O)[C@@H](NC(=O)OC)C(C)OC)[nH]4)ccc2-3)[nH]1)C(C)C (stereo partly shown) [Example 85]	0.001 to 0.999 nM	0.001 to 0.999 nM	0.016 nM	0.001 to 0.99 nM	1 to 4.99 nM	–	–	–	–
COC(=O)N[C@H](C(=O)N1[C@@H]2CC[C@@H](C2)[C@H]1c1ncc(-c2ccc3c(c2)CCc2cc(-c4cnc([C@@H]5CCCN5C(=O)[C@@H](NC(=O)OC)C5CCOCC5)[nH]4)ccc2-3)[nH]1)C(C)C [Example 86]	0.001 to 0.999 nM	0.001 to 0.999 nM	0.034 nM	0.001 to 0.99 nM	1 to 4.99 nM	–	–	–	–
COC(=O)N[C@H](C(=O)N1CCC[C@H]1c1nc2ccc3cc(-c4ccc5c(c4)CCc4nc([C@@H]6[C@H]7CC[C@H](C7)N6C(=O)[C@@H](NC(=O)OC)[C@@H](C)OC)[nH]c4-5)ccc3c2[nH]1)C(C)C [Example 88]	0.001 to 0.999 nM	0.001 to 0.999 nM	0.019 nM	0.001 to 0.99 nM	0.001 to 0.99 nM	–	–	–	–
COC(=O)N[C@H](C(=O)N1CCC[C@H]1c1nc2ccc3cc(-c4ccc5c(c4)CCc4nc([C@@H]6[C@H]7CC[C@H](C7)N6C(=O)[C@@H](NC(=O)OC)C6CCOCC6)[nH]c4-5)ccc3c2[nH]1)C(C)C [Example 89]	0.001 to 0.999 nM	0.001 to 0.999 nM	0.064 nM	0.001 to 0.99 nM	0.001 to 0.99 nM	–	–	–	–
COC(=O)N[C@H](C(=O)N1CCC[C@H]1c1ncc(-c2ccc(-c3ccc4c(ccc5nc([C@@H]6CC7(CN6C(=O)[C@@H](NC(=O)OC)[C@@H](C)OC)OCCO7)[nH]c54)c3)cc2)[nH]1)C(C)C [Example 90]	0.001 to 0.999 nM	0.001 to 0.999 nM	0.044 nM	0.001 to 0.99 nM	1 to 4.99 nM	–	–	–	–
COC(=O)N[C@H](C(=O)N1CCC[C@H]1c1ncc(-c2ccc(-c3ccc4c(ccc5nc([C@@H]6CC7(CN6C(=O)[C@@H](NC(=O)OC)C6CCOCC6)OCCO7)[nH]c54)c3)cc2)[nH]1)C(C)C [Example 91]	0.001 to 0.999 nM	0.001 to 0.999 nM	0.1 nM	0.001 to 0.99 nM	1 to 4.99 nM	–	–	–	–
COC(=O)N[C@H](C(=O)N1CCC[C@H]1c1ncc(-c2ccc3c(c2)CCc2cc(-c4cnc([C@@H]5[C@H]6CC[C@H](C6)N5C(=O)[C@@H](NC(=O)OC)C5CCOCC5)[nH]4)ccc2-3)[nH]1)C(C)C [Example 92]	0.001 to 0.999 nM	0.001 to 0.999 nM	0.047 nM	0.001 to 0.99 nM	0.001 to 0.99 nM	–	–	–	–
COC(=O)N[C@H](C(=O)N1CCC[C@H]1c1ncc(-c2ccc3c(c2)CCc2cc(-c4cnc([C@@H]5[C@H]6CC[C@H](C6)N5C(=O)[C@@H](NC(=O)OC)[C@@H](C)OC)[nH]4)ccc2-3)[nH]1)C(C)C [Example 93]	0.001 to 0.999 nM	0.001 to 0.999 nM	0.023 nM	0.001 to 0.99 nM	0.001 to 0.99 nM	–	–	–	–
COC(=O)N[C@H](C(=O)N1CCC[C@H]1c1ncc(-c2ccc3c(c2)COc2cc(-c4ccc5nc([C@@H]6[C@H]7CC[C@H](C7)N6C(=O)[C@H](NC(=O)OC)c6ccccc6)[nH]c5c4)ccc2-3)[nH]1)C(C)C [Example 94]	0.001 to 0.999 nM	0.001 to 0.999 nM	0.007 nM	0.001 to 0.99 nM	0.001 to 0.99 nM	–	–	–	–
COC(=O)N[C@H](C(=O)N1CC2(CC2)C[C@H]1c1ncc(-c2ccc3c(c2)C(F)(F)c2cc(-c4ccc5nc([C@@H]6[C@H]7CC[C@H](C7)N6C(=O)[C@@H](c6ccccc6)N6CCOCC6)[nH]c5c4)ccc2-3)[nH]1)C(C)C [Example 96]	1 to 44 nM	0.001 to 0.999 nM	0.006 nM	0.001 to 0.99 nM	1 to 4.99 nM	–	–	–	–
COC(=O)N[C@H](C(=O)N1CC2(CC2)C[C@H]1c1ncc(-c2ccc3c(c2)C(F)(F)c2cc(-c4ccc5nc([C@@H]6[C@H]7CC[C@H](C7)N6C(=O)[C@H](c6ccccc6)N6CCOCC6)[nH]c5c4)ccc2-3)[nH]1)C(C)C [Example 97]	1 to 44 nM	1 to 44 nM	0.009 nM	0.001 to 0.99 nM	> 5 nM	–	–	–	–
COC(=O)N[C@H](C(=O)N1[C@@H]2CC[C@@H](C2)[C@H]1c1ncc(-c2ccc(-c3ccc(-c4cnc([C@@H]5C[C@H]6C[C@H]6N5C(=O)[C@@H](NC(=O)OC)C(C)C)[nH]4)cc3)cc2)[nH]1)C(C)C [Example 99]	0.001 to 0.999 nM	0.001 to 0.999 nM	0.021 nM	0.001 to 0.99 nM	1 to 4.99 nM	–	–	–	–
COC(=O)N[C@H](C(=O)N1CCC[C@H]1c1nc2ccc3cc(-c4ccc(-c5cnc([C@@H]6[C@H]7CC[C@H](C7)N6C(=O)[C@@H](NC(=O)OC)[C@@H](C)OC)[nH]5)c(F)c4)ccc3c2[nH]1)C(C)C [Example 100]	0.001 to 0.999 nM	0.001 to 0.999 nM	0.004 nM	0.001 to 0.99 nM	0.001 to 0.99 nM	–	–	–	–
COC(=O)N[C@H](C(=O)N1[C@@H]2CC[C@@H](C2)[C@H]1c1ncc(-c2ccc3cc(-c4ccc5c(ccc6nc([C@@H]7CCCN7C(=O)[C@H](NC(=O)OC)c7ccccc7)[nH]c65)c4)ccc3c2)[nH]1)C1CCOCC1 [Example 101]	0.001 to 0.999 nM	0.001 to 0.999 nM	0.011 nM	0.001 to 0.99 nM	0.001 to 0.99 nM	–	–	–	–
COC(=O)N[C@H](C(=O)N1[C@@H]2CC[C@@H](C2)[C@H]1c1ncc(-c2ccc3cc(-c4ccc5c(ccc6nc([C@@H]7CCCN7C(=O)[C@H](NC(=O)OC)c7ccccc7)[nH]c65)c4)ccc3c2)[nH]1)[C@@H](C)OC [Example 102]	0.001 to 0.999 nM	0.001 to 0.999 nM	0.009 nM	0.001 to 0.99 nM	0.001 to 0.99 nM	–	–	–	–
COC(=O)N[C@H](C(=O)N1C[C@@H](C#N)C[C@H]1c1ncc(-c2ccc3cc(-c4ccc(-c5cnc([C@@H]6CCCN6C(=O)[C@H](NC(=O)OC)c6ccccc6)[nH]5)cc4)ccc3c2)[nH]1)C(C)C [Example 116]	–	–	–	0.001 to 0.99 nM	–	0.001 to 0.999 nM	0.001 to 0.999 nM	0.008 nM	0.001 to 0.99 nM
COC(=O)NC(C(=O)N1CCC[C@H]1c1ncc(-c2ccc(-c3ccc4cc(-c5cnc([C@@H]6CCCN6C(=O)C(NC(=O)OC)C(C)C)[nH]5)ccc4c3)cc2)[nH]1)C(C)C (stereo partly shown) [Example 136]	–	–	–	0.001 to 0.99 nM	–	0.001 to 0.999 nM	0.001 to 0.999 nM	0.005 nM	0.001 to 0.99 nM
COC(=O)N[C@H](C(=O)N1CCC[C@H]1c1nc2c([nH]1)COc1cc(-c3ccc4cc(-c5c[nH]c([C@@H]6CCCN6C(=O)[C@@H](c6ccccc6)N(C)C)n5)ccc4c3)ccc1-2)C(C)C [Example 177]	–	–	–	0.001 to 0.99 nM	–	0.001 to 0.999 nM	0.001 to 0.999 nM	0.01 nM	0.001 to 0.99 nM
COC(=O)N[C@H](C(=O)N1CCC[C@H]1c1nc2ccc(-c3ccc4c(c3)CCc3cc(-c5cnc([C@@H]6CCCN6C(=O)C(c6ccccc6)N(C)C)[nH]5)ccc3-4)cc2[nH]1)C(C)C (stereo partly shown) [Example 181]	–	–	–	0.001 to 0.99 nM	–	0.001 to 0.999 nM	0.001 to 0.999 nM	0.01 nM	0.001 to 0.99 nM
